Laboratory results reported in patent publication US10738024B2, “Compounds for treatment of angiogenesis-mediated diseases” (Indiana University Research and Technology Corporation, priority 2013, dated 2020).
“Also recorded” adds a separate entry of the source. Like-named read-outs stand apart in the source and are kept apart here. Values belong to the molecule of their own block, whether it stands above or below them.

What was measured:
NF-κB p65 = experiment: TNF-α induced NF-κB p65 nuclear translocation in HRECs (immunofluorescence); format: cell-based, human; details: 10 ng/ml TNF-α for 20 minutes
Protocol: Cells (25,000 per coverslip) were seeded onto coverslips coated with Attachment Factor (Cell Systems, Kirkland, Wash., USA) and incubated at 37° C. and 5% CO2 for 24 hours in EGM-2. The cells were starved in 0.1% serum-EBM-2 for 8 hours followed by 0.1% serum-EBM-2 medium for one hour in the presence of different concentrations of SH-11052 (2). The cells were induced with 10 ng/ml TNF-α, a known pro-inflammatory cytokine and inducer of NF-κB, for 20 minutes and fixed with 4% paraformaldehyde solution for 20 minutes at room temperature. Since NF-κB exerts its transcriptional activity in the nucleus, blockade of stimulus-induced nuclear translocation of NF-κB is an indication of NF-κB pathway inhibition.
Cells were quickly washed three times in TBS and permeabilized by incubating with 0.5% Triton X-100 for 10 minutes. The cells were blocked in 10% block solution (DAKO) in TBS plus 1% BSA followed by incubation with an antibody against NF-κB p65 (1:50 dilution). Dylight 488-conjugated goat anti-mouse secondary antibody (1:200 dilution) was used to probe the NF-κB p65 antibody. The coverslips were mounted using Vectashield mounting medium containing DAPI (Vector Labs) for nuclear staining. The cells were imaged using an LSM 700 confocal microscope (Zeiss). […]

[1] = system: Y-79 retinoblastoma cells; experiment: ALAMARBLUE proliferation assay in Y-79 retinoblastoma cells; format: cell-based; details: 50% growth inhibitory concentration, 48 hours
Protocol: (§1) For proliferation assays, cells (2500 per well) were seeded in a 96-well clear bottom black polystyrene plate in a total volume of 100 μL. HUVECs and HRECs were grown in EGM-2 and CSC+ media respectively, while 92-1 and Y79 cells were maintained in RPMI+10% FBS, penicillin/streptomycin and RB medium (IMDM+10% FBS+penicillin/streptomycin+10 μg/mL insulin+55 μM β-mercaptoethanol) respectively. After 24 hours of incubation of the plate at 37° C., the compounds were dissolved in DMSO and added in the concentration range of 500 μM to 0.5 nM. The plate was then incubated at 37° C. and 5% CO2 conditions for 48 hours before adding 11.1 μL of alamar blue reagent for each well. Four hours after the addition of ALAMARBLUE® reagent, fluorescence readings with excitation and emission wavelengths of 560 nm and 590 nm respectively were taken and the data was analyzed in GraphPad Prism software. The dose response curves were generated and the GI50 values were calculated using the equation: Y=100/(1+10^(X−Log GI50)) (Table 1).

HUVECs = experiment: ALAMARBLUE proliferation assay in HUVECs; format: cell-based, human; details: for GI50: 50% growth inhibitory concentration, alamarBlue
Protocol: (§2) Particularly, in a 96-well clear bottom black plate, cells (2,500 cells per well) were seeded in a total volume of 100 μL EGM-2. After 24 hours of incubation of the plate at 37° C. and 5% CO2, a DMSO solution of synthetic cremastranone (1) or SH-11052 (2) was added in the concentration range of 0.5 nM to 500 μM (final DMSO concentration=1%). The plate was then further incubated for 48 hours before adding 11.1 μL of ALAMARBLUE® reagent to each well. Four hours after the addition of ALAMARBLUE®, fluorescence readings with excitation and emission wavelengths of 560 nm and 590 nm, respectively, were taken and the data were analyzed in GraphPad Prism software (v. 6.0). Dose response curves were generated and the GI50 values were calculated using the following equation: Y=100/(1+10^(X−Log GI50)).
as §1

HRECs [2] = experiment: ALAMARBLUE proliferation assay in HRECs; format: cell-based, human; details: for GI50: Homo sapiens, HREC; for in vitro anti-proliferative activity in HRECs: result in words, FIGS. 6B, 6D, 14
Protocol: as §2, §1

[3] = system: 92-1 uveal melanoma cells; experiment: ALAMARBLUE proliferation assay in 92-1 uveal melanoma cells; format: cell-based; details: for GI50: 50% growth inhibitory concentration, 48 hours, alamarBlue
Protocol: as §1

HRECs [4] = experiment: Apoptosis of HRECs by cleaved caspase-3 staining; format: cell-based, human
Protocol: Further, cells (25,000 per coverslip) were seeded onto coverslips coated with Attachment Factor (Cell Systems, Kirkland, Wash., USA) and incubated at 37° C. and 5% CO2 in EGM-2 until ˜80% confluence was achieved. The cells were then incubated for 4 hours with the indicated concentrations of SH-11052 (2). Staurosporine (SP; 1 μM) was used as a positive control. After the incubation, the cells were fixed in 4% paraformaldehyde for 20 minutes at room temperature followed by three quick washes in Tris buffered saline pH 7.4 (TBS). The cells were permeabilized by incubating with 0.5% Triton X-100 for 10 minutes and then blocked in 10% block solution (DAKO, Glostrup, Denmark) in TBS plus 1% bovine serum albumin (BSA) for 1 hour. The cells were then incubated with cleaved caspase-3 (D175) antibody (1:200 dilution) overnight at 4° C. Dylight 555 conjugated goat anti-rabbit secondary antibody (1:400) was used to probe the cleaved caspase-3 antibody. The coverslips were mounted using Vectashield mounting medium containing DAPI (Vector Labs, Burlingame, Calif., USA) for nuclear staining. The cells were imaged using an LSM 700 confocal microscope (Zeiss, Thornwood, N.Y., USA).

[5] = 50% growth inhibitory concentration, 48 hours, alamarBlue, read-out: GI50 HREC

GI50 [1]: 87 µM | GI50 [3]: 6 µM
SMILES: COc1ccc(CC2COc3cc(OC)c(O)c(O)c3C2=O)cc1O (single isomer, unassigned) [Compound 2]
nuclear translocation of NF-κB (p65) upon TNF-α stimulation / NF-κB signaling (NF-κB p65; listed as SH-11052 (2)): blocked NF-κB signaling; also recorded: inhibited | GI50 (HUVECs; Homo sapiens, HUVEC, 48 h): 18 µM | in vitro anti-proliferative activity in HUVECs (HUVECs; result in words, FIGS. 6A, 6C): demonstrated in vitro anti-proliferative activity | GI50 (HRECs [2]; [5]): 43 µM | in vitro anti-proliferative activity in HRECs (HRECs [2]): demonstrated in vitro anti-proliferative activity | apoptosis of HRECs (cleaved caspase-3 staining) (HRECs [4]; 100 μM, 4 hours): negligible apoptosis

SMILES: COc1ccc(CC2COc3cc(OC)c(OC)c(OC)c3C2=O)cc1OC(=O)[C@H](Cc1ccccc1)NC(=O)OC(C)(C)C (stereo partly drawn) [Compound 6c, (2S)-2-methoxy-5-((5,6,7-trimethoxy-4-oxochroman-3-yl)methyl)phenyl 2-((tert-butoxycarbonyl)amino)-3-phenylpropanoate]
nuclear translocation of NF-κB (p65) upon TNF-α stimulation / NF-κB signaling (NF-κB p65; listed as SH-11037 (6c)): did not inhibit NF-κB signaling | GI50 [1]: 12 µM | GI50 (HUVECs; 48 hours, listed as 6c (SH-11037), read-out: GI50 HUVEC): 0.746 µM | GI50 (HUVECs; Homo sapiens, HUVEC, 48 h): 1 µM | GI50 (HRECs [2]; [5]): 0.087 µM | GI50 (HRECs [2]; text of Example 15, FIG. 14, read-out: HREC GI50): 0.15 µM | in vitro anti-proliferative activity in HRECs (HRECs [2]): inhibition of proliferation | GI50 [3]: 400 µM | toxicity to a uveal melanoma cell line ([3]; result in words): non-toxic | apoptosis of HRECs (HRECs [4]; concentration not given, FIGS. 16A-16B, listed as SH-11037 (6c)): did not cause apoptosis; also recorded: did not promote apoptosis
